In patent US8569511B2, “Substituted 3-(1H-benzo[d]imidazol-2-yl)-1H-indazole analogs as inhibitors of the PDK1 kinase” (University of Utah Research Foundation, priority 2011, dated 2013):

Assays:
PDK1 [1] = target: T1, PDK1 (Homo sapiens (Human), UniProt O15530); assay: PDK1 ATP Depletion Kinase Assay (Kinase-Glo luminescence); assay type: biochemical; conditions: PDKtide substrate, read-out: PDK1 Kinase assays (IC50, μM) Activity Assay
Description: Test compounds were diluted to desired concentrations in kinase reaction buffer and briefly incubated with human recombinant PDK1 kinase which is histidine-tagged (Invitrogen Corporation, Carlsbad, Calif.). The reaction was subsequently initiated by the addition of ATP and PDKtide substrate (Millipore Corporation, Billerica, Massachussetts). […] After an incubation of 60 minutes at room temperature, 10 μl of the Kinase-Glo reagent (Promega Corporation, Madison, Wis.) was added to each well and incubated for an additional 10 minutes. Luminescence was measured on an EnVision microplate reader (PerkinElmer). The amount of luminescence from each reaction is inversely correlated with PDK1 kinase activity. Percent inhibition and IC50 values can be calculated by comparing enzyme activity in drug-treated wells to the appropriate controls, e.g. vehicle control.
(§1) IC50 values are determined using GraphPad Prism 5 software. The data were entered as an X-Y plot into the software as percent inhibition for each concentration of the drug. The concentration values of the drug were log transformed and the nonlinear regression was carried out using the “sigmoidal dose-response (variable slope)” option within the GraphPad software to model the data and calculate IC50 values.

PDK1 [2] = target: T1, PDK1; assay: Time resolved-FRET LanthaScreen Kinase Binding Assay; conditions: TR-FRET Lanthascreen Kinase Binding Assay; read-out: PDK1 Kinase assays (IC50, μM) Binding Assay
From the text: Binding of the tracer to the kinase is detected using a europium-labeled anti-tag antibody, which binds to the kinase of interest. […] Binding of an inhibitor to the kinase competes for binding with the tracer, resulting in a loss of FRET.
Activity of compounds was routinely assessed using a secondary assay as described herein. The secondary assay was a time resolved-FRET LanthaScreen Kinase Binding Assay (Invitrogen Corporation, Carlsbad, Calif.). This assay evaluates the ability of the test compound to compete with a fluorescently-labeled tracer molecule to bind in the ATP pocket of a kinase. The assay signal is generated when a Europium-conjugated anti-His tag antibody (Invitrogen) bound to the His-tagged kinase produces a TR-FRET signal with the tracer molecule bound in the ATP pocket of the kinase. […] After 60 minutes of incubation at room temperature, the TR-FRET signal was measured on an EnVision microplate reader.
as §1

PDK1 [3] = target: T1, PDK1; assay: PDK1 fluorometric activity assay performed by Life Technologies; assay type: biochemical; conditions: fluorometric assay performed by Life Technologies (Table IV); read-out: PDK1 Kinase assays (IC50)
Description: PDK1 biochemical activity was measured by a fluorometric assay performed by Life Technologies (Grand Island, N.Y.). The assay conditions for PDK1 are as follows. The 2×PDK1/Ser/Thr-07 mixture is prepared in 50 mM Tris pH 8.5, 0.01% BRIJ-35, 10 mM MgCl2, 1 mM EGTA, 0.02% NaN3.
The kinase specificity was measured using fluorometric assays performed by Life Technologies (Grand Island, N.Y.). Assay conditions vary for each kinase and are available from Life Technologies, Grand Island, NY. For example, the assay conditions for PDK1 are as follows. The 2×PDK1/Ser/Thr-07 mixture is prepared in 50 mM Tris pH 8.5, 0.01% BRIJ-35, 10 mM MgCl2, 1 mM EGTA, 0.02% NaN3.

AN3-CA cells = assay: Cell viability assay (ATP-lite); assay type: cell-based; conditions: Homo sapiens; AN3-CA (PTEN and PIK3R1 mutations); read-out: Cell Viability IC50 AN3-CA
Description: (§2) AN3-CA (PTEN-deficient), RL95-2 (PTEN-deficient), and HEC-1A (PTEN-wild type) cells were plated in 45 μl of RPMI-1640 media supplemented with 10% FBS and 1% Pen/Strep at a density of 1000 cells per well in white 384-well plates. Cells were allowed to attach by incubation overnight at 37° C. and 5% CO2. Test compounds were diluted to 10× concentrations in RPMI-1640 media (containing 3% DMSO) and 5 μl 1 of these dilutions were added in triplicate to the appropriate wells containing the cells. The plates containing the drug-treated cells and appropriate controls were incubated for 96 hours. At the end of the incubation, 40 μl of ATP-lite (PerkinElmer, Inc., Waltham, Massachussetts) reagent were added to each well and luminescence signal was measured on an EnVision microplate reader.
(§3) Alternatively, AN3-CA, RL95-2, HEC-1A endometrial cancer cell lines were plated at a density of 2000 cells per well in a 96 well culture plate in 45 μl of cell culture media and incubated overnight. The following day, test compounds were added to the cells in 5 μl of serum-free media to generate final concentrations of 10, 3, 1, 0.3, 0.1, 0.03, 0.01, or 0.003 μM. Vehicle treated controls were also included and each condition was applied in quadruplicate. Following 96 hours of incubation, 35 μL of ATP-lite (PerkinElmer) reagent was added each well and allowed to react for 10 minutes. Plate was read on a Envision 2104 MultiLabel reader (PerkinElmer).
as §1

HEC-1A cells = assay: Cell viability assay (ATP-lite); assay type: cell-based; conditions: Homo sapiens; HEC-1A (PTEN-wild type); read-out: Cell Viability IC50 HEC-1A
Description: as §2
as §3, with “The following day, test compounds were added to the cells in 5 μl of serum-free media to generate final concentrations of 10, 3, 1, 0.3, 0.1, 0.03, 0.01, or 0.003 μM.” left out
as §1

RL95-2 cells = assay: Cell viability assay (ATP-lite); assay type: cell-based; conditions: Homo sapiens; RL95-2 (PTEN mutation); read-out: Cell Viability IC50 RL95-2
Description: as §2
as §3, with “The following day, test compounds were added to the cells in 5 μl of serum-free media to generate final concentrations of 10, 3, 1, 0.3, 0.1, 0.03, 0.01, or 0.003 μM.” left out
as §1

T1 sequence (O15530 whole entry): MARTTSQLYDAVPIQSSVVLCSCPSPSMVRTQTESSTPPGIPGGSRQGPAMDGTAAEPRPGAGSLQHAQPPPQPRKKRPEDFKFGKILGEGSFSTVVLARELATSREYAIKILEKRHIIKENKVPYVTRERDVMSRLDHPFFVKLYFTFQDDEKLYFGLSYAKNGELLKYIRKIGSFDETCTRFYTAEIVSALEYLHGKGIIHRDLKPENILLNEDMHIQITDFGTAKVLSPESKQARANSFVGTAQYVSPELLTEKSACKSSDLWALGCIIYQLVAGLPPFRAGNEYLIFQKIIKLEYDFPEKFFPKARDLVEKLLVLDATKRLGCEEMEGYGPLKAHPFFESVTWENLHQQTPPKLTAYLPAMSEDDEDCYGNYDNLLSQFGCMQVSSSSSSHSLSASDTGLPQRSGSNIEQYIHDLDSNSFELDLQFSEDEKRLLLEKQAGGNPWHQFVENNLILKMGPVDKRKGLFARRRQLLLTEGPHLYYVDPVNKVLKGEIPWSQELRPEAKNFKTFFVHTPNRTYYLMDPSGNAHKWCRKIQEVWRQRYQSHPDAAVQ

| Compound | IC50 (PDK1 [1]) | IC50 (PDK1 [2]) | IC50 (PDK1 [3]) | IC50 (AN3-CA cells) | IC50 (HEC-1A cells) | IC50 (RL95-2 cells) |
| --- | --- | --- | --- | --- | --- | --- |
| O=C(Nc1ccc2[nH]nc(-c3nc4cc(N5CCOCC5)ccc4[nH]3)c2c1)C1CC1 [Compound 3] | 0.283 µM | 0.229 µM | 230 nM |  |  |  |
| O=C(Nc1ccc2[nH]nc(-c3nc4cc(N5CCOCC5)ccc4[nH]3)c2c1)C1CCC(F)(F)CC1 [Compound 4] | 0.304 µM | 0.265 µM | 265 nM |  |  |  |
| CC1CCN(c2ccc3[nH]c(-c4n[nH]c5ccc(NC(=O)C6CC6(F)F)cc45)nc3c2)CC1 (centres unmarked) [Compound 5] | 0.78 µM |  | 780 nM |  |  |  |
| O=C(Nc1ccc2[nH]nc(-c3nc4ccccc4[nH]3)c2c1)C1CCC(F)(F)CC1 [Compound 6] | 1.5 µM | 0.41 µM | 410 nM | 2.07 µM | 9.65 µM | 2.3 µM |
| O=C(Nc1ccc2[nH]nc(-c3nc4ccccc4[nH]3)c2c1)C1CC1 [Compound 7] | 1.74 µM | 1.23 µM | 1230 nM |  |  |  |
| O=C(Nc1ccc2[nH]nc(-c3nc4ccccc4[nH]3)c2c1)C1CC1(F)F (centres unmarked) [Compound 8] | 1.94 µM | 0.28 µM | 280 nM | 0.33 µM | 14.8 µM | 6.97 µM |
| O=C(Nc1ccc2[nH]nc(-c3nc4cc(CN5CCOCC5)ccc4[nH]3)c2c1)C1CC1(F)F (centres unmarked) [Compound 9] | 3.75 µM | 1.22 µM | 1220 nM | 0.443 µM | 18.4 µM | 3.22 µM |
| O=C(Nc1cccc2[nH]nc(-c3nc4ccc(N5CCOCC5)cc4[nH]3)c12)C1CC1(F)F (centres unmarked) [Compound 10] | 4.4 µM | 0.385 µM | 385 nM |  |  |  |
| Brc1ccc2[nH]nc(-c3nc4ccccc4[nH]3)c2c1 [Compound 11] | 10.9 µM |  |  | 12.1 µM | 29.5 µM | 11.5 µM |
| O=C(Nc1ccc2[nH]nc(-c3nc4ccccc4[nH]3)c2c1)NC1CC1 [Compound 12] | 11.6 µM | 0.92 µM | 920 nM | 18 µM | 12.7 µM | 17 µM |
| O=C(Nc1ccc2[nH]nc(-c3nc4ccccc4[nH]3)c2c1)c1cccc(F)c1 [Compound 13] | 21.1 µM | 8.79 µM | 8800 nM | 23.8 µM | 50.7 µM | 15.3 µM |
| CS(=O)(=O)c1cccc(-c2ccc3[nH]nc(-c4nc5ccccc5[nH]4)c3c2)c1 [Compound 14] | 23.7 µM | 15.3 µM | 15300 nM | 10.1 µM | 20.1 µM | 35.1 µM |
| FC(F)(F)c1cccc(-c2ccc3[nH]nc(-c4nc5ccccc5[nH]4)c3c2)c1 [Compound 15] | 55.7 µM | 30.3 µM | 30300 nM |  |  |  |
| CC(C)(C#N)c1ccc(-c2ccc3[nH]nc(-c4nc5ccccc5[nH]4)c3c2)cc1 [Compound 16] | 58.5 µM | 5.17 µM | 5200 nM | 79.3 µM | 28.7 µM | 15.1 µM |
| O=C(Nc1ccc2[nH]nc(-c3nc4ccccc4[nH]3)c2c1)Nc1ccc(F)cc1F [Compound 17] | > 100 µM | > 100 µM |  |  |  |  |
| CN1CCC(C)(C(=O)Nc2ccc3[nH]nc(-c4nc5ccccc5[nH]4)c3c2)CC1 [Compound 18] | > 100 µM |  |  | 15.4 µM | 56.3 µM | 6.24 µM |
| O=C(Nc1ccc2[nH]nc(-c3nc4ccccc4[nH]3)c2c1)NC1CCCC1 [Compound 19] | > 100 µM |  |  |  |  |  |
| O=C(Nc1ccc2[nH]nc(-c3nc4ccccc4[nH]3)c2c1)C1CCN(c2ccncc2)CC1 [Compound 20] | > 100 µM | > 100 µM |  |  |  |  |
| O=C(Nc1ccc2c(-c3nc4ccc(N5CCOCC5)cc4[nH]3)n[nH]c2c1)C1CC1(F)F (centres unmarked) [Compound 21] | > 100 µM | > 100 µM |  |  |  |  |
